ChEMBL document CHEMBL3813654, “De Novo Design at the Edge of Chaos” (J Med Chem, 2016)
Blank lines part the entries; values can stand above or below the compound they belong to.

What was measured:
Estrogen receptor beta = Estrogen receptor beta (Homo sapiens, UniProt Q92731); assay: Displacement of [3H]-17beta-estradiol from human recombinant ERbeta expressed in rabbit reticulocytes; assay type: cell-based
Estrogen receptor = molecular target: T1, Estrogen receptor (Homo sapiens, UniProt P03372); assay: Displacement of [3H]-17beta-estradiol from human recombinant ERalpha expressed in rabbit reticulocytes; assay type: cell-based
T1 sequence (P03372 whole entry): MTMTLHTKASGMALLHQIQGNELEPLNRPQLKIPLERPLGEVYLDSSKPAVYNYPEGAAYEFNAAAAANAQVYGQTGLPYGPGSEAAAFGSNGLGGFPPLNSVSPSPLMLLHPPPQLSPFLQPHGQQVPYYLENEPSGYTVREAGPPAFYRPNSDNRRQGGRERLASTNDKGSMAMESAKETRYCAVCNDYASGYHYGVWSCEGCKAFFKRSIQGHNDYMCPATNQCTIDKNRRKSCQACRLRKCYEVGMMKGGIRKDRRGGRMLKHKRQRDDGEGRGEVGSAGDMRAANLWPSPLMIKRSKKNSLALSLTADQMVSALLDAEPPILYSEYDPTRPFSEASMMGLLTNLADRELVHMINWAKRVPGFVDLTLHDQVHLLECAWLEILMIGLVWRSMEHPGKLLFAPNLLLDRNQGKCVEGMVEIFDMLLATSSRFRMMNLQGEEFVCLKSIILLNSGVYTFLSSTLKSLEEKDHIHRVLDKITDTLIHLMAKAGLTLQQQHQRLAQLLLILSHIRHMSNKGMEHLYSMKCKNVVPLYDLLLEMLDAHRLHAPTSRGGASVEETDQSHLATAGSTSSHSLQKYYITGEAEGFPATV

Protease = Protease (Human immunodeficiency virus 1, UniProt Q9YQ12); assay: Inhibition of HIV1 protease
Collagenase 3 = Collagenase 3 (Homo sapiens, UniProt P45452); assay: Inhibition of human recombinant MMP13 (85 to 255 residues) expressed in Escherichia coli using 5-FAM/QXLTM as substrate by fluorometric assay
[1] = molecular target: cGMP-inhibited 3',5'-cyclic phosphodiesterase 3B (Homo sapiens, UniProt Q13370); assay: Inhibition of human recombinant PDE3B expressed in insect Sf9 cells assessed as residual cAMP level after 30 mins by HTRF assay
MAP kinase p38 = MAP kinase p38 (Homo sapiens, UniProt O15264+Q15759+Q16539+P53778); assay: Inhibition of human P38 expressed in yeast using T669 as substrate preincubated for 30 mins followed by [gamma-32P]Mg/ATP addition measured after 25 mins by beta scintillation counting method
[2] = molecular target: Cyclin-dependent kinase 4/cyclin D2 (Homo sapiens, UniProt P11802+P30279); assay: Inhibition of human recombinant CDK4/Cyclin D2 expressed in baculovirus infected insect Sf9 cells using G1 peptide as substrate after 45 mins by Top Count method in presence of [33P]-ATP
[3] = molecular target: Serine/threonine-protein kinase PLK1 (Homo sapiens, UniProt P53350); assay: Inhibition of inactivated PLK1 in human HeLa cells using casein as substrate by immunoprecipitation assay; assay type: cell-based
Procathepsin L = Procathepsin L (Homo sapiens, UniProt P07711); assay: Activation of human liver cathepsin L using Z-FR-AMC as substrate measured for 120 mins by fluorescence assay
Sequence of Procathepsin L (P07711 whole entry): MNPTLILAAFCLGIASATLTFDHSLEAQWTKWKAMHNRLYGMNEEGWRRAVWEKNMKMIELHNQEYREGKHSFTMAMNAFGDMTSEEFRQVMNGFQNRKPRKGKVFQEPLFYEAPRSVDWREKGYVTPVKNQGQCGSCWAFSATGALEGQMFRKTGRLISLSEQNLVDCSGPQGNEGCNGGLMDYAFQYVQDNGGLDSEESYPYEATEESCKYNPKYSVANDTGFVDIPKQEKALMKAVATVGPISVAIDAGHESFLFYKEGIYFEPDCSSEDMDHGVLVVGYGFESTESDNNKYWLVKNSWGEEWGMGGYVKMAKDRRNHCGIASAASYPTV

Sequence of Protease (Q9YQ12 whole entry, the tested form may be a part): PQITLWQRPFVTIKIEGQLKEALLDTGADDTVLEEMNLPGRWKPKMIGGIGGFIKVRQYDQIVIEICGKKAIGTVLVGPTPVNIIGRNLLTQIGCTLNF
Sequence of cGMP-inhibited 3',5'-cyclic phosphodiesterase 3B (Q13370 whole entry): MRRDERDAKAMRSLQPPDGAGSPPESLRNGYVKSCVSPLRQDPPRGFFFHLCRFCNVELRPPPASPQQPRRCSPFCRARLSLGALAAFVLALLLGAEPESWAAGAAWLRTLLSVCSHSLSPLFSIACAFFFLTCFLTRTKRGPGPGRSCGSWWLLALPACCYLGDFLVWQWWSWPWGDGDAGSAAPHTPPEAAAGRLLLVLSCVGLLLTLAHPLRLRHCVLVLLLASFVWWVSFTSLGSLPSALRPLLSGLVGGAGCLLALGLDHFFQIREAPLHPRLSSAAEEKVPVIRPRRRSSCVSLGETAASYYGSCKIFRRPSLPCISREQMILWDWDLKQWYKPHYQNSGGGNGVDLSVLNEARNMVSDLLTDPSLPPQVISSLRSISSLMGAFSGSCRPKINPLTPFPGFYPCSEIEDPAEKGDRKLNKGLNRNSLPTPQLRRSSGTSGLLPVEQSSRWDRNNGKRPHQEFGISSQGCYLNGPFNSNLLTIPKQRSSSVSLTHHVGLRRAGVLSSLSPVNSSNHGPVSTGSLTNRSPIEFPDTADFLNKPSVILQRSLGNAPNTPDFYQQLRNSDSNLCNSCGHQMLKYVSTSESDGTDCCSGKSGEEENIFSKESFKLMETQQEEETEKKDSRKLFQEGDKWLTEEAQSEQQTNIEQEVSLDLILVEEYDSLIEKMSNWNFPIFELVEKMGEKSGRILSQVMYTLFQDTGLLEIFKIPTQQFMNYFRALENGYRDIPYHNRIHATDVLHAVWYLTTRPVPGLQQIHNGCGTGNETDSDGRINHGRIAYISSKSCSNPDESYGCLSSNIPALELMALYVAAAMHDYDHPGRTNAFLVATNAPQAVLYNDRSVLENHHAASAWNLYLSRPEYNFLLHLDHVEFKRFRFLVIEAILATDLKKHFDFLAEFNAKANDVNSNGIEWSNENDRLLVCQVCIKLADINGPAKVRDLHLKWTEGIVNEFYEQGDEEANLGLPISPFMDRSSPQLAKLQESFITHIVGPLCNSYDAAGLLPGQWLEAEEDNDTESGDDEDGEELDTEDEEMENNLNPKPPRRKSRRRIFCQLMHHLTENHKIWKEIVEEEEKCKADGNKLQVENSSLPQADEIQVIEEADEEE
Sequence of Estrogen receptor beta (Q92731 whole entry): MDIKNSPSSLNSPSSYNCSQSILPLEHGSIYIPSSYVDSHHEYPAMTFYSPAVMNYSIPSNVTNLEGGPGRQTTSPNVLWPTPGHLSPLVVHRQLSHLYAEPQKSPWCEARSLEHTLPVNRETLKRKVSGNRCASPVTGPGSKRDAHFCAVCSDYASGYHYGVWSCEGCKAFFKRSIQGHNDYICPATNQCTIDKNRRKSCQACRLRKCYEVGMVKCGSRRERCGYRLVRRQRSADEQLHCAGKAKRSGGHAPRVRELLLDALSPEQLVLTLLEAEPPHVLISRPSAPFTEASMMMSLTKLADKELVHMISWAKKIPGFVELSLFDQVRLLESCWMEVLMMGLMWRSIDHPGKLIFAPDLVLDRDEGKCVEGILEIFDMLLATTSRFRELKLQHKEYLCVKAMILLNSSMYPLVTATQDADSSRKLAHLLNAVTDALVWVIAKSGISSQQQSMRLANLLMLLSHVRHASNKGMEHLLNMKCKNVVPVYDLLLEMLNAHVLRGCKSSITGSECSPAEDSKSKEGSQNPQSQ
Sequence of Cyclin-dependent kinase 4/cyclin D2 (P11802 whole entry): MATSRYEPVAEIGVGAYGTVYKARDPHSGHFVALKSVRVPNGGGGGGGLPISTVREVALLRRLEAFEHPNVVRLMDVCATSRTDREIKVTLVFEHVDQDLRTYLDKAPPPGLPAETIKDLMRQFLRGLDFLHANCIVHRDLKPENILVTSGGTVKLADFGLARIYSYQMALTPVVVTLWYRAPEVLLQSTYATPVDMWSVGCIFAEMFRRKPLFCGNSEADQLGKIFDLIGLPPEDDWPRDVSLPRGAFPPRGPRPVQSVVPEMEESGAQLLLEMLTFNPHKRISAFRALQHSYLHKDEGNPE
Sequence of Cyclin-dependent kinase 4/cyclin D2 (P30279 whole entry): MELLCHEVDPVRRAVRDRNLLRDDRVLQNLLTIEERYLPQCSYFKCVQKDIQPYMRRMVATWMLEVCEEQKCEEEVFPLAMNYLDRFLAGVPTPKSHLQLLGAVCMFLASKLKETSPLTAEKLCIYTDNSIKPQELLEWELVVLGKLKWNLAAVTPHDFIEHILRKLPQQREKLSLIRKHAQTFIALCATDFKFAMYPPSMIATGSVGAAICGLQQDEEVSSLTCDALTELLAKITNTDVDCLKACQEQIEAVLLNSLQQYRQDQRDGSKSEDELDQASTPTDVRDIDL
Sequence of Serine/threonine-protein kinase PLK1 (P53350 whole entry): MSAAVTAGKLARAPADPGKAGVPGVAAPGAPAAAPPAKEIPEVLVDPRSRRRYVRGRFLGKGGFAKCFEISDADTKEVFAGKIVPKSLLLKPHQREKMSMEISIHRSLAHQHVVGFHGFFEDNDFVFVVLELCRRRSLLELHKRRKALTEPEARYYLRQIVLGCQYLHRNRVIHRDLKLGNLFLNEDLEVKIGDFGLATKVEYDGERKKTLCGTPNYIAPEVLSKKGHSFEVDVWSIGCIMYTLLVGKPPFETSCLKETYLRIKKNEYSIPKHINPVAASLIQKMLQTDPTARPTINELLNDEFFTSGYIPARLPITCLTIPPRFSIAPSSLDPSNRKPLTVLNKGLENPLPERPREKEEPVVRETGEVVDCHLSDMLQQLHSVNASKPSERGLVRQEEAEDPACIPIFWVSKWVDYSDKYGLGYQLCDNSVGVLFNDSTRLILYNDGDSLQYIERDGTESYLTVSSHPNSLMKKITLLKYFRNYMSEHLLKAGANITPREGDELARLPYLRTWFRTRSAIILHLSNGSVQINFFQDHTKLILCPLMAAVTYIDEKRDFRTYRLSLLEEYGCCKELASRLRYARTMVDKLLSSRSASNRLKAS

IC50 (Protease): 160 nM
Structure (SMILES): CC(C)(C)NC(=O)[C@@H]1C[C@@H]2CCCC[C@@H]2CN1C[C@@H](O)[C@H](Cc1ccccc1)NC(=O)OC1CCCC1

IC50 [2]: 100 nM
Structure (SMILES): O=C(Nc1ccccn1)Nc1cccc2c1-c1ccccc1C2=O

IC50 [3]: 50 nM
Structure (SMILES): FC(F)(F)c1ccc(OC(CCNCc2ccccn2)c2ccccc2)cc1 (centres undefined)

EC50 (Procathepsin L): 6000 nM
Structure (SMILES): O=C(COc1ccccc1)N[C@@H](Cc1ccccc1)C(=O)O[C@H]1CCOC1

Second part, the compound before the results:

Structure (SMILES): CCc1ccc2c(c1)C(c1ccc(OCCN3CCOCC3)cc1)Cc1cc(O)cc(C)c1-2 (centres undefined)
IC50 (Estrogen receptor beta): 190 nM | IC50 (Estrogen receptor): 9 nM

Structure (SMILES): O=C(O)CCCOc1cccc(CNC(=O)C#Cc2cn(Cc3ccc(C(=O)O)cc3)c(=O)[nH]c2=O)c1
IC50 (Collagenase 3): 6 nM

Structure (SMILES): O=C1CCC(c2ccc(NC(=O)Cc3cccnc3)cc2)=NN1
EC50 [1]: 6000 nM

Structure (SMILES): Cc1ccc(-c2ncn(CC3CC3)c2-c2ccncc2)cc1
IC50 (MAP kinase p38): 160 nM
